Measured values from ChEMBL document CHEMBL4507268 (2021).

Legend:
Settings in all cases: Compound concentration 1.0 uM
[1] = target: Serine/threonine-protein kinase VRK2 (Homo sapiens) (UniProt Q86Y07)
[2] = target: T1, Beta-adrenergic receptor kinase 1 (Homo sapiens) (UniProt P25098)
T1 sequence (whole entry): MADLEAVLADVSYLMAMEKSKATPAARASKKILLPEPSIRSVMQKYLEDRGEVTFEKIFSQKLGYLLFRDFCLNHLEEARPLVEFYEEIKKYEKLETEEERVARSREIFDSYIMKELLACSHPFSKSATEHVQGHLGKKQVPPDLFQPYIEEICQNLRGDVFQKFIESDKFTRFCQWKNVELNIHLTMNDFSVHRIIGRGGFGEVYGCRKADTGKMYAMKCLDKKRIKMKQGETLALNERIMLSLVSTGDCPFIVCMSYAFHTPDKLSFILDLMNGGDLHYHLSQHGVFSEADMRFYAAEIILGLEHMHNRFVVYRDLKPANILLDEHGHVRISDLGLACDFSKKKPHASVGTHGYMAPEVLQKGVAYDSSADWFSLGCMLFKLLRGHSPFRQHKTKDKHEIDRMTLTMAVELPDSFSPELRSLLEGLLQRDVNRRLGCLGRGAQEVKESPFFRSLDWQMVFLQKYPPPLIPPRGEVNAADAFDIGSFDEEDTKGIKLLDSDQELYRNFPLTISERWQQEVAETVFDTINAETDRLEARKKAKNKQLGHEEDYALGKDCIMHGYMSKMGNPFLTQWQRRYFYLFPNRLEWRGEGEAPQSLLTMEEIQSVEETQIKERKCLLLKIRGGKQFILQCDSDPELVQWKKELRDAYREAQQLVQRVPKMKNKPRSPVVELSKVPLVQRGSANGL

[3] = target: Protein kinase C theta type (Homo sapiens) (UniProt Q04759)
Protein kinase C theta type (Homo sapiens), sequence (Q04759 whole entry, looked up): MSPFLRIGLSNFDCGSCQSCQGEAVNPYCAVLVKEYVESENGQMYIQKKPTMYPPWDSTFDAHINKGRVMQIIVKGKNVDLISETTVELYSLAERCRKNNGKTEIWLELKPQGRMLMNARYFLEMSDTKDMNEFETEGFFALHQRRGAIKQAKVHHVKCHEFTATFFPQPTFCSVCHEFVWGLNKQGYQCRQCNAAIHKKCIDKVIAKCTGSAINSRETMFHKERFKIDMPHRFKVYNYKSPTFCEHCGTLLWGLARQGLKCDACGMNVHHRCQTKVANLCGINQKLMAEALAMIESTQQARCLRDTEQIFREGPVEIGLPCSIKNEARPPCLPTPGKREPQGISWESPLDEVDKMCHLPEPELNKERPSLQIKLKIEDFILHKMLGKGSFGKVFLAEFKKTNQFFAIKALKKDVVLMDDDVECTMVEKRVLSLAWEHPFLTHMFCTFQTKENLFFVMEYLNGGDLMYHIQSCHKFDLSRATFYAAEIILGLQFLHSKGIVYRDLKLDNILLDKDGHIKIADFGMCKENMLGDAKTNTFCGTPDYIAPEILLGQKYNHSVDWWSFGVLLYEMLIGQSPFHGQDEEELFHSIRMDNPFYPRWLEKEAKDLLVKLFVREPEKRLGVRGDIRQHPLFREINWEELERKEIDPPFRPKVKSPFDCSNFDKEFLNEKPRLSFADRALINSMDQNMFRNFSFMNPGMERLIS

[4] = target: Tyrosine-protein kinase FRK (Homo sapiens) (UniProt P42685)
Tyrosine-protein kinase FRK (Homo sapiens), sequence (P42685 whole entry): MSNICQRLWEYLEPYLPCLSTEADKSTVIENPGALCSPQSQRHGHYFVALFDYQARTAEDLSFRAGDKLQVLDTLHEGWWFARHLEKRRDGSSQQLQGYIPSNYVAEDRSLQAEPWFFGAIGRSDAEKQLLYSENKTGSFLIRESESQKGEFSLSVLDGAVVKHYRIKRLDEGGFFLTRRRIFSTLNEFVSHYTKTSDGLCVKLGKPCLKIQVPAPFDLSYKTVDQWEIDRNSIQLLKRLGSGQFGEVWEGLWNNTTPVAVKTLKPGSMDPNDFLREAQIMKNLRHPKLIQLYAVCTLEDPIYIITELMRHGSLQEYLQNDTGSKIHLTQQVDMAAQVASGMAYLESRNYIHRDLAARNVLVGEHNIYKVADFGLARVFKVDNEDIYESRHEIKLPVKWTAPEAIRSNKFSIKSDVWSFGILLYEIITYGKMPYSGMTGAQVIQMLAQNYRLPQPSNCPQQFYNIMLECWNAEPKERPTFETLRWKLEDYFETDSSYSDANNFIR

[5] = target: Death-associated protein kinase 2 (Homo sapiens) (UniProt Q9UIK4)
Death-associated protein kinase 2 (Homo sapiens), sequence (Q9UIK4 whole entry, looked up): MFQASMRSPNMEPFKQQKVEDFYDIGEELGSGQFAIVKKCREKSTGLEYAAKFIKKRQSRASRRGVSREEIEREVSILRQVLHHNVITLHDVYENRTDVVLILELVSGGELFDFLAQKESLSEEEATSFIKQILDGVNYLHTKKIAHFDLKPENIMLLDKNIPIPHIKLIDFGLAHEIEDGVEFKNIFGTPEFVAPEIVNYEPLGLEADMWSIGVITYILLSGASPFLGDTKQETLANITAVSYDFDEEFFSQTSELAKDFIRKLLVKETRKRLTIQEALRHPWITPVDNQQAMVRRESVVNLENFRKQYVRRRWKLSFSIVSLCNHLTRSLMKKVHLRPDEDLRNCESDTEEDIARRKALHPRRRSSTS

[6] = target: Mitogen-activated protein kinase 10 (Homo sapiens) (UniProt P53779)
Mitogen-activated protein kinase 10 (Homo sapiens), sequence (P53779 whole entry, canonical isoform): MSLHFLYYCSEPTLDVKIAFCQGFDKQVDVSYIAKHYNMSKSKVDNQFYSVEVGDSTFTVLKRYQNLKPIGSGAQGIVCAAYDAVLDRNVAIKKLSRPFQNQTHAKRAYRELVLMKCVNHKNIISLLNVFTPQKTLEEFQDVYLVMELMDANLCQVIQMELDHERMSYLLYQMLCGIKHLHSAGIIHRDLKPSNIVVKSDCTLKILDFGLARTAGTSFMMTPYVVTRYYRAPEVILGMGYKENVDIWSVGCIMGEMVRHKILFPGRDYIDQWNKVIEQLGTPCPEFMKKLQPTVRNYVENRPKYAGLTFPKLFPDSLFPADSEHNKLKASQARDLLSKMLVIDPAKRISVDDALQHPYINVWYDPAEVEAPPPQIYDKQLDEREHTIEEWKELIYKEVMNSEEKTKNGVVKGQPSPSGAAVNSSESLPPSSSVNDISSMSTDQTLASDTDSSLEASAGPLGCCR

[7] = target: T2, Phosphorylase b kinase regulatory subunit alpha, liver isoform (Homo sapiens) (UniProt P46019)
T2 sequence (whole entry): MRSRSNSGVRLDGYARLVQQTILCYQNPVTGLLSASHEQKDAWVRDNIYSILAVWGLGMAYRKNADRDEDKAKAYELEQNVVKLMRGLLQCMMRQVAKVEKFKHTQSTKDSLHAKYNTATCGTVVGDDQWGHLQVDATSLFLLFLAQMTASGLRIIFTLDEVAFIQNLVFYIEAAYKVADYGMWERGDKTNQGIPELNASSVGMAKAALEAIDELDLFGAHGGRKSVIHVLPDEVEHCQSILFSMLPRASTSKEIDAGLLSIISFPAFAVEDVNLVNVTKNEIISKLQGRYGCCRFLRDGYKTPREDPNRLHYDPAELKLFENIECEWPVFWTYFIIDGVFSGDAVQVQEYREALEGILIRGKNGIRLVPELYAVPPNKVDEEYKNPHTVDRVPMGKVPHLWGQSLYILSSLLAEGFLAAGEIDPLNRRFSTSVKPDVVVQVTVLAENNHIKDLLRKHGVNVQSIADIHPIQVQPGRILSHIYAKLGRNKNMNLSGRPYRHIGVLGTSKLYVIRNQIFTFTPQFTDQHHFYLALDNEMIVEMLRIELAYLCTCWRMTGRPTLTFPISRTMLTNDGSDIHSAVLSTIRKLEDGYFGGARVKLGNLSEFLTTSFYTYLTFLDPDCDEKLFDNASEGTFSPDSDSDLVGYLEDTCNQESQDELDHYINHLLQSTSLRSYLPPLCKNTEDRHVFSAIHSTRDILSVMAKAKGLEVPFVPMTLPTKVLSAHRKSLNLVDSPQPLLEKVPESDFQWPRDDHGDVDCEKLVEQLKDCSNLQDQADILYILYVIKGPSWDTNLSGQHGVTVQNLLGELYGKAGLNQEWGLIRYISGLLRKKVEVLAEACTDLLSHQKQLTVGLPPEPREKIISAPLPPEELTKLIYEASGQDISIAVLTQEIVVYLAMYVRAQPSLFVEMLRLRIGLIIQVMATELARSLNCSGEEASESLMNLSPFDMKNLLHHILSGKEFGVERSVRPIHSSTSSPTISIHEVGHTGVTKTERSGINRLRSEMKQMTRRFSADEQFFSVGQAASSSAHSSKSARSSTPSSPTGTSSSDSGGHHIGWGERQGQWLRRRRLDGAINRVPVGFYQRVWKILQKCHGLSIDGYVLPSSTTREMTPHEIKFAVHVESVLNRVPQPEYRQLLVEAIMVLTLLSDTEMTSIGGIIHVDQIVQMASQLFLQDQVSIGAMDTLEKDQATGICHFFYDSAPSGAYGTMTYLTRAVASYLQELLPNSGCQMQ

[8] = target: STE20-like serine/threonine-protein kinase (Homo sapiens) (UniProt Q9H2G2)
STE20-like serine/threonine-protein kinase (Homo sapiens), sequence (Q9H2G2 whole entry, looked up): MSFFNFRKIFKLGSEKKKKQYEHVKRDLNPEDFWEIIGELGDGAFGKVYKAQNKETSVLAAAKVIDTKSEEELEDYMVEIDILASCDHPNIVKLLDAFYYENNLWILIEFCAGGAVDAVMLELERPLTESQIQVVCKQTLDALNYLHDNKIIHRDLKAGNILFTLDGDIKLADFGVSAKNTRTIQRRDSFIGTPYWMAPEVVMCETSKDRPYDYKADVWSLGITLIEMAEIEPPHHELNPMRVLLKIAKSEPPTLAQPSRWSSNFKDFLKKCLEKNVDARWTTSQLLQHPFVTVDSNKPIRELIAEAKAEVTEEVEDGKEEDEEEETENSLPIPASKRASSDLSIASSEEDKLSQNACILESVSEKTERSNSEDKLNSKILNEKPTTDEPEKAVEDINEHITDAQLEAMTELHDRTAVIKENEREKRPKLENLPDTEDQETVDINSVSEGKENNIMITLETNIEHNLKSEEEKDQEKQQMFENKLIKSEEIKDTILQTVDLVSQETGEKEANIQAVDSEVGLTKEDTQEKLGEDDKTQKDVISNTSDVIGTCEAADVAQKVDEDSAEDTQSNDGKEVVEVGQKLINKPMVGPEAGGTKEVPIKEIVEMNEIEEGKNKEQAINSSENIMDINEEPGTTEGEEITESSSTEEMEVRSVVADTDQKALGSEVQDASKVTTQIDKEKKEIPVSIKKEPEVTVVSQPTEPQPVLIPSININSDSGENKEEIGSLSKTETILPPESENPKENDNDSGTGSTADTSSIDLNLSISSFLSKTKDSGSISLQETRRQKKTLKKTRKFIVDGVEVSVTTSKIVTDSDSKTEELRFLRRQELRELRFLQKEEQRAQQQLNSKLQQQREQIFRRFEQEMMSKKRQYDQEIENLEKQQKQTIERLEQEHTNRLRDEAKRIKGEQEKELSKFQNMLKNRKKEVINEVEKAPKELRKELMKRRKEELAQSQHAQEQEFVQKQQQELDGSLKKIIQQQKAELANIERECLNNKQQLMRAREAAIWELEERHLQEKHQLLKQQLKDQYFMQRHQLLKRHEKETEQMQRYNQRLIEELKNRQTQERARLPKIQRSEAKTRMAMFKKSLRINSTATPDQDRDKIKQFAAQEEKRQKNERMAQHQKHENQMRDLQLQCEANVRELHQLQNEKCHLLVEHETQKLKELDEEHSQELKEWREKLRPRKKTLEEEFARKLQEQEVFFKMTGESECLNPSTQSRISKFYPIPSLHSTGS

[9] = target: T3, G protein-coupled receptor kinase 3 (Homo sapiens) (UniProt P35626)
T3 sequence (whole entry): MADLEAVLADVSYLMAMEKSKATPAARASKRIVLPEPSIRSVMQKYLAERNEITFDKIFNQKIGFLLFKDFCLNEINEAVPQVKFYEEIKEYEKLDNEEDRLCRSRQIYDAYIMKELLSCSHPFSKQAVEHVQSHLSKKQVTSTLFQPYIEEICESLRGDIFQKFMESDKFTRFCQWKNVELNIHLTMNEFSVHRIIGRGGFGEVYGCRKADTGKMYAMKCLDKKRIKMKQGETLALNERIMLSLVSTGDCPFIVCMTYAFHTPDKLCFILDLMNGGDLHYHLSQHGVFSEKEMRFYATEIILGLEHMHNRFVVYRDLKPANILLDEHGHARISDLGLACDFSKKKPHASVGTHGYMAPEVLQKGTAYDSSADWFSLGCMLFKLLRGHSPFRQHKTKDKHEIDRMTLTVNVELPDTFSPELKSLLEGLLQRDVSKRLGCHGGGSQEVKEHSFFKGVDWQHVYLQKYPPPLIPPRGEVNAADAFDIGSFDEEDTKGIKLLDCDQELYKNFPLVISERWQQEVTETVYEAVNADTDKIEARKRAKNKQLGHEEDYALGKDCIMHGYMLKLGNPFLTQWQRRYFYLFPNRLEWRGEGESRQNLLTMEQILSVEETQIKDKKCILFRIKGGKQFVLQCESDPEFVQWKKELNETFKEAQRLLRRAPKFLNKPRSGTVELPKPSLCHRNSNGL

[10] = target: Tyrosine-protein kinase JAK1 (Homo sapiens) (UniProt P23458)
Tyrosine-protein kinase JAK1 (Homo sapiens), sequence (P23458 whole entry): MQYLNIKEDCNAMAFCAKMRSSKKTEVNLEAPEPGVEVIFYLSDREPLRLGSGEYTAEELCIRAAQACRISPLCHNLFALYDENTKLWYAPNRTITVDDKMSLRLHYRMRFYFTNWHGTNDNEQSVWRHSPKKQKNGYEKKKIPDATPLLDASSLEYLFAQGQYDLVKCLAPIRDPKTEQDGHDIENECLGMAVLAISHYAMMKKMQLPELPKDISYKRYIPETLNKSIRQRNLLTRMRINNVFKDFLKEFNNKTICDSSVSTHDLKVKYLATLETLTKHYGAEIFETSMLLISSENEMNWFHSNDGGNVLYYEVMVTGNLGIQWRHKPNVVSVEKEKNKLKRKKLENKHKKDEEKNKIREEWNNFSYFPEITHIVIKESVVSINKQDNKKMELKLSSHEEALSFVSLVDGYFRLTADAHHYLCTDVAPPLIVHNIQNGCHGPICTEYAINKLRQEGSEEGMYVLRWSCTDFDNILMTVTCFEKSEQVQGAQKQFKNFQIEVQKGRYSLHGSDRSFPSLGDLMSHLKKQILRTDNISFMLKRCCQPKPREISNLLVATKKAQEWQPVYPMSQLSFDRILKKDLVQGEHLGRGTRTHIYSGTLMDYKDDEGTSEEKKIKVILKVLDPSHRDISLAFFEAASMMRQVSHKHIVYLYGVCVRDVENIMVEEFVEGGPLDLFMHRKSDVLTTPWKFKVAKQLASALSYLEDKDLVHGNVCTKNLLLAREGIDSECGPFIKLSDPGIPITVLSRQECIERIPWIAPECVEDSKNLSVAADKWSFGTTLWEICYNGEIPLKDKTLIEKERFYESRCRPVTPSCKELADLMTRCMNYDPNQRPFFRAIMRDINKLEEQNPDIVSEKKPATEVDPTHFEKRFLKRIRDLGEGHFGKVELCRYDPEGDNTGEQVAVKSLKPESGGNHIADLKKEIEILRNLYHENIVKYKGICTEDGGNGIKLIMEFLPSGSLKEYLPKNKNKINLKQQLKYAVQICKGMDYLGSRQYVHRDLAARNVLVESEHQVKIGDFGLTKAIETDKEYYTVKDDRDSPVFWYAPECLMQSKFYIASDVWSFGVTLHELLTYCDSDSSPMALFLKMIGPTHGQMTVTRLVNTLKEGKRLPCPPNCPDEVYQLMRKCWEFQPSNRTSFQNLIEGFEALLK

Measured: % residual kinase activity

Serine/threonine-protein kinase VRK2 (Homo sapiens), sequence (Q86Y07 whole entry): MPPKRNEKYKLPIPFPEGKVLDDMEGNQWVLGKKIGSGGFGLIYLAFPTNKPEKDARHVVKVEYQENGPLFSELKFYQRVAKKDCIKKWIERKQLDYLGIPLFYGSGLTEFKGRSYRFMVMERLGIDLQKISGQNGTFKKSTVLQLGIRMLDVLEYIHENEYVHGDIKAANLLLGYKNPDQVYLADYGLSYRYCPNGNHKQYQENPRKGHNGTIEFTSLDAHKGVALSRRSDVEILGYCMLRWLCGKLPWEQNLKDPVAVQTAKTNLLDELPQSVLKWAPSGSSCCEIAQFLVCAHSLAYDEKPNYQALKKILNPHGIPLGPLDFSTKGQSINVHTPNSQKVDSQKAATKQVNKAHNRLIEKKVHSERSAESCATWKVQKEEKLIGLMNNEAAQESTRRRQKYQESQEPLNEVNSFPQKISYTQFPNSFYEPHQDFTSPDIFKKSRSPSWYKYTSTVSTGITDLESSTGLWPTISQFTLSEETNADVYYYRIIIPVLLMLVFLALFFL

CN1CCN(c2cnc3c(C4CCN(C(=O)c5ccc(OC(F)(F)F)cc5N)CC4)ncnc3c2)CC1 [BAY-885]
inactive: [1] 106% | [2] 85% | [3] 115% | [4] 109% | [5] 99% | [6] 111% | [7] 112% | [8] 87% | [9] 92% | [10] 104%
